# Reference: patent US5696117A, “Benzoxazine antimicrobial agents” (Ortho Pharmaceutical Corporation, priority 1995, dated 1997)
# How the values were obtained:
# gram positive bacteria = test: MIC antimicrobial assay, microdilution broth method (NCCLS), gram positive bacteria; assay type: cell-based; conditions: range over the gram positive test organisms; 35° C., 16-20 hours
# Experimental: 2. MIC Anitimicrobial Assay
# The in vitro antimicrobial activity of the compounds was determined by the microdilution broth method following the test method from the National Committee for Laboratory Standards (NCCLS). This method is described in the NCCLS Document M7-A2, Vol. 10, No. 8 "Methods for Dilution Antimicrobial Susceptibility Test for Bacteria that Grow Aerobically--Second Edition."
# In this method two-fold serial dilutions of drug in cation supplemented Mueller-Hinton broth are added to wells in microdilution trays. The test organisms are prepared by adjusting the turbidity of actively growing broth cultures so that the final concentration of test organism after it is added to the wells is approximately 5×10^4 CFUs/well.
# Following inoculation of the microdilution trays, the trays are incubated at 35° C. for 16-20 hours and then read. […] The amount of growth in the wells containing the test compound is compared with the amount of growth in the growth-control wells (no test compound) used in each tray. As set forth in Tables 1 and 2, compounds of the present invention were tested against a variety of Gram+ and Gram- pathogenic bacteria resulting in a range of activities, from 1→128 μg/mL depending on the organism tested. The following test organisms were utilized in the assay:
# Enterococcus faecalis ATCC 29212
# Enterococcus faecalis oc 3041
# Enterococcus faecium oc 2993
# Methicillin resistant Staphylococcus aureus oc 2089
# Methicillin resistant Staphylococcus aureus oc667
# Staphylococcus aureus ATCC 29213
# Staphylococcus aureus ATCC 6538
# Staphylococcus epidermidis oc 2603
# Kinase A and SpoOF = target: T1, Kinase A and SpoOF (Bacillus subtilis, UniProt P16497); test: Autophosphorylation of Kinase A and Transphosphorylation of SpoOF Assay (HPK in vitro assay); assay type: biochemical; conditions: inhibition of KinA autophosphorylation / SpoOF transphosphorylation, inhibitor concentrations from 1 to 500 μM
# T1 construct: made in house; host or cells: recombinant E. coli (overexpression)
# T1 sequence (P16497 1-606): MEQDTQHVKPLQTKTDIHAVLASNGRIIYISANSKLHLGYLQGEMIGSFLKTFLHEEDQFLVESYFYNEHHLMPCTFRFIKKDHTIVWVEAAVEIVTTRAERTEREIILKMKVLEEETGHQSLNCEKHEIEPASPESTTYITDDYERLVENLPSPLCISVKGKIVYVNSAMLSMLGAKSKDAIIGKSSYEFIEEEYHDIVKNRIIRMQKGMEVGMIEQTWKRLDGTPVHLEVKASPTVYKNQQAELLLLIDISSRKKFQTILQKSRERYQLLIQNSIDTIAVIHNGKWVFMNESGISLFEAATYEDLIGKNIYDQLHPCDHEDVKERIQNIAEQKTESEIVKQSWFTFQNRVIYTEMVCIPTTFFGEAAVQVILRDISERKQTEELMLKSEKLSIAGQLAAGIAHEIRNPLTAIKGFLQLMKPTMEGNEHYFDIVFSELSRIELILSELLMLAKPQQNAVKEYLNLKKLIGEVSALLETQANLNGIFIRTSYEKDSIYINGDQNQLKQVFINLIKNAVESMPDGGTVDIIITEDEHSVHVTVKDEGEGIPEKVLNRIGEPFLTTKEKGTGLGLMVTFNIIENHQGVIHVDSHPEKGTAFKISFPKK
# Procedure, shortened: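 Recombinant KinA and SpoOF (from E. coli) preincubated 15 min on ice with compound (1.0 mM solution in 5% DMSO, stock), then 10 min at room temperature with [32P]ATP. Labelled proteins resolved by SDS gel, quantified by phosphoimager; IC50 from 1–500 μM compound range.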
MIC (gram positive bacteria) [µg/mL],IC50 (Kinase A and SpoOF) [µM],SMILES
2 to 4,41,"N=C(N)NCCc1ccc(OCCC2CN(Cc3ccc(Cl)cc3)c3ccccc3O2)cc1 (stereo not shown) [Compound 22, 4-(4-Chlorobenzyl)-2-[2-[4-(2-guanidinoethyl)phenoxy]ethyl]-3,4-dihydro-2H-1,4-benzoxazine]"
1 to 2,17,"N=C(N)NCCc1ccc(OCCC2CN(Cc3cccc(Cl)c3)c3ccccc3O2)cc1 (stereo not shown) [Compound 23, 4-(3-Chlorobenzyl)-2-[2-[4-(2-guanidinoethyl)phenoxy]ethyl]-3,4-dihydro-2H-1,4-benzoxazine]"
2 to 4,68,"N=C(N)NCCc1ccc(OCCC2Oc3ccccc3N(Cc3ccc(Cl)cc3)C2=O)cc1 (stereo not shown) [Compound 26, 4-(4-Chlorobenzyl)-3,4-dihydro-2-[2-[4-(2-guanidinoethyl)phenoxy]ethyl]-3-oxo-2H-1,4-benzoxazine]"
2,9,"N=C(N)NCCc1ccc(OCCC2Oc3ccc(Cl)cc3N(Cc3cccc(Cl)c3)C2=O)cc1 (stereo not shown) [Compound 50, 6-Chloro-4-(3-chlorobenzyl)-2-{2-[4-(2-guanidinoethyl)phenoxy]ethyl}-3,4-dihydro-3-oxo-2H-1,4-benzoxazine]"
2,17,"Cc1ccc2c(c1)OC(CCOc1ccc(CCNC(=N)N)cc1)C(=O)N2Cc1cccc(Cl)c1 (stereo not shown) [Compound 58, 4-(3-Chlorobenzyl)-2-{2-[4-(2-guanidinoethyl)phenoxy]ethyl}-3,4-dihydro-7-methyl-3-oxo-2H-1,4-benzoxazine]"
2 to 4,30,"N=C(N)NCCc1ccc(OCCC2Oc3ccccc3N(Cc3cccc(Cl)c3)C2=O)cc1 (stereo not shown) [Compound 72, 4-(3-Chlorobenzyl)-3,4-dihydro-2-{2-[4-(2-guanidinoethyl)phenoxy]ethyl}-3-oxo-2H-1,4-benzoxazine]"
1 to 4,32,"N=C(N)NCc1ccc(OCCC2Oc3ccccc3N(Cc3cccc(Cl)c3)C2=O)cc1 (stereo not shown) [Compound 78, 4-(3-Chlorobenzyl)-3,4-dihydro-2-{2-[4-(guanidinylmethyl)phenoxy]ethyl}-3-oxo-2H-1,4-benzoxazine]"
8 to 16,78,"NCCc1ccc(OCCC2Oc3ccccc3N(Cc3cccc(Cl)c3)C2=O)cc1 (stereo not shown) [Compound 79, 2-{2-[4-(2-Aminoethyl)phenoxy]ethyl}-4-(3-chlorobenzyl)-3,4-dihydro-3-oxo-2H-1,4-benzoxazine]"

# Second part, the compound before the results:
SMILES,MIC (gram positive bacteria) [µg/mL],IC50 (Kinase A and SpoOF) [µM]
"NCc1ccc(OCCC2Oc3ccccc3N(Cc3cccc(Cl)c3)C2=O)cc1 (stereo not shown) [Compound 2, 2-[2-[4-(Aminomethyl)phenoxy]ethyl]-4-(3-chlorobenzyl)-3,4-dihydro-3-oxo-2H-1,4-benzoxazine]",8 to 32,55
"NCc1ccc(OCCC2Oc3ccccc3N(Cc3ccc(Cl)cc3)C2=O)cc1 (stereo not shown) [Compound 4, 2-[2-[4-(Aminomethyl)phenoxy]ethyl]-4-(4-chlorobenzyl)-3,4-dihydro-3-oxo-2H-1,4-benzoxazine]",8 to 16,47
"NCCc1cccc(OCCC2Oc3ccccc3N(Cc3ccccc3Cl)C2=O)c1 (stereo not shown) [Compound 16, 2-[2-[3-(2-Aminoethyl)phenoxy]ethyl]-4-(2-chlorobenzyl)-3,4-dihydro-3-oxo-2H-1,4-benzoxazine]",8 to 16,74
"N=C(N)NCc1ccc(OCCC2Oc3ccccc3N(Cc3ccccc3Cl)C2=O)cc1 (stereo not shown) [Compound 19, 4-(2-Chlorobenzyl)-2-[2-[4-(guanidinomethyl)phenoxy]ethyl]-3,4-dihydro-3-oxo-2H-1,4-benzoxazine]",1 to 4,16
"NCc1ccc(OCCC2Oc3ccccc3N(Cc3cc(Cl)cc(Cl)c3)C2=O)cc1 (stereo not shown) [Compound 39, 2-{2-[4-(2-Aminomethyl)phenoxy]ethyl}-4-(3,5-dichlorobenzyl)-3,4-dihydro-3-oxo-2H-1,4-benzoxazine]",4 to 16,46
"N=C(N)NCCc1ccc(OCCC2Oc3ccccc3N(Cc3cc(Cl)cc(Cl)c3)C2=O)cc1 (stereo not shown) [Compound 40, 4-(3,5-Dichlorobenzyl)-3,4-dihydro-2-{2-[4-(2-guanidinoethyl)phenoxy]ethyl}-3-oxo-2H-1,4-benzoxazine]",2,24
"CN1C(=O)C(CCOc2ccc(CCNC(=N)N)cc2)Oc2ccccc21 (stereo not shown) [Compound 60, 3,4-Dihydro-2-{2-[4-(2-guanidinoethyl)phenoxy]ethyl}-4-methyl-3-oxo-2H-1,4-benzoxazine]",16 to 34,55
"NCCc1cccc(OCCC2Oc3ccccc3N(Cc3cc(Cl)cc(Cl)c3)C2=O)c1 (stereo not shown) [Compound 64, 2-{2-[3-(2-Aminoethyl)phenoxy]ethyl}-4-(3,5-dichlorobenzyl)-3,4-dihydro-3-oxo-2H-1,4-benzoxazine]",4 to 8,32
"NCCc1cccc(OCCC2Oc3ccccc3N(Cc3cccc(Cl)c3)C2=O)c1 (stereo not shown) [Compound 70, 2-{2-[3-(2-Aminoethyl)phenoxy]ethyl}-4-(3-chlorobenzyl)-3,4-dihydro-3-oxo-2H-1,4-benzoxazine]",8 to 16,65
"NCc1cccc(OCCC2Oc3ccccc3N(Cc3cccc(Cl)c3)C2=O)c1 (stereo not shown) [Compound 74, 2-{2-[3-(Aminomethyl)phenoxy]ethyl}-4-(3-chlorobenzyl)-3,4-dihydro-3-oxo-2H-1,4-benzoxazine]",8 to 16,81
"NCCCc1ccc(OCCC2Oc3ccccc3N(Cc3cccc(Cl)c3)C2=O)cc1 (stereo not shown) [Compound 76, 2-{2-[4-(3-Aminopropyl)phenoxy]ethyl}-4-(3-chlorobenzyl)-3,4-dihydro-3-oxo-2H-1,4-benzoxazine]",8,32
"N=C(N)NCCc1ccc(OCCC2Oc3ccc([N+](=O)[O-])cc3N(Cc3ccccc3Cl)C2=O)cc1 (stereo not shown) [Compound 89, 3,4-Dihydro-2-{2-[4-(2-guanidinoethyl)-phenoxy]ethyl}-6-nitro-4-(2-chlorobenzyl)-3-oxo-2H-1,4-benzoxazine]",1 to 4,17
"O=C1NC(=O)C(c2ccc(OCCC3Oc4ccccc4N(Cc4cccc(Cl)c4)C3=O)cc2)S1 (stereo not shown) [Compound 134, 5-[4-{2-[4-(3-Chlorobenzyl)-3,4-dihydro-3-oxo-2H-1,4-benzoxazin-2-yl]ethoxy}phenyl]thiazolidine-2,4-dione]",–,23
"N=C(N)NCCc1ccc(OCCC2Oc3ccccc3N(Cc3ccc([N+](=O)[O-])cc3)C2=O)cc1 (stereo not shown) [Compound 139, 3,4-Dihydro-2-{2-[4-(2-guanidinoethyl)-phenoxy]ethyl}-4-(4-nitrobenzyl)-3-oxo-2H-1,4-benzoxazine]",–,24
"COc1ccc(CN2C(=O)C(CCOc3ccc(CCNC(=NC(=O)OC(C)(C)C)NC(=O)OC(C)(C)C)cc3)Oc3ccccc32)cc1 (stereo not shown) [Compound 140, 2-{2-[4-[2-(N,N-Bis-tert-butoxycarbonylguanidino)ethyl]phenoxy]ethyl}-3,4-dihydro-4(4-methoxybenzyl)-3-oxo-2H-1,4-benzoxazine]",–,343
"NCCCc1ccc(OCCC2Oc3ccccc3N(Cc3ccc(Cl)cc3)C2=O)cc1 (stereo not shown) [Compound 142, 2-[2-[4-(3-Aminopropyl)phenoxy]ethyl]-4-(4-chlorobenzyl)-3,4-dihydro-3-oxo-2H-1,4-benzoxazine]",–,42
"CC(C)(C)OC(=O)N=C(NCCc1ccc(OCCC2Oc3cc([N+](=O)[O-])ccc3N(Cc3ccccc3[N+](=O)[O-])C2=O)cc1)NC(=O)OC(C)(C)C (stereo not shown) [Compound 143, 2-{2-[4-(2-(N,N-Bis-tert-butoxycarbonylguanidino)ethyl)phenoxy]ethyl}-3,4-dihydro-7-nitro-4-(2-nitrobenzyl) 3-oxo-2H-1,4-benzoxazine]",–,73
"CC(C)(C)OC(=O)NCCc1ccc(OCCC2Oc3ccccc3N(Cc3cccc(Cl)c3)C2=O)cc1 (stereo not shown) [Compound 144, 2-[2-[4-(2-(t-Butoxycarbonylamino)ethyl)phenoxy]ethyl]-4-(3-chlorobenzyl)-3,4-dihydro-3-oxo-2H-1,4-benzoxazine]",–,348
